Values quoted from earlier work as cited in patent US20150141462A1, “PHARMACEUTICAL COMPOSITIONS AND METHODS FOR TREATING DRUG ADDICTION AND PREVENTING A DRUG RELAPSE” (priority 2012, published 2015).

Key:
[1] = not given; remark: listed apart in the source
[2] = tested on: animal models of addiction; conditions: mGluR5 antagonists

SMILES | extinction of cocaine-induced conditioned place preference (rats) | cocaine-seeking behavior (following intravenous self-administration) | reacquisition of cocaine self-administration (in vivo) | reinstatement ([1]; following methamphetamine self-administration) | extinction following methamphetamine self-administration ([1]; in vivo) | self-administration of drugs of abuse [2]
N#Cc1cccc(C(=O)Nc2cc(-c3ccccc3)nn2-c2ccccc2)c1 [CDPPB, 3-cyano-N-(1,3-diphenyl-1H-pyrazol-5-yl)benzamide] | enhances extinction | reduces cocaine-seeking behavior | deters the reacquisition | reduced reinstatement slightly | improved extinction | –
Cc1cccc(C#Cc2ccccc2)n1.Cl [MPEP, 2-methyl-6-(phenylethynyl)pyridine hydrochloride] | – | – | – | – | – | reduce self-administration of virtually all drugs of abuse
Cc1nc(C#Cc2cccnc2)cs1 [MTEP, 3-((2-methyl-4-thiazolyl)ethynyl)pyridine] | – | – | – | – | – | reduce self-administration of virtually all drugs of abuse
